Measured values: PubChem BioAssay (NCI)
Where “and” joins values, the source holds several entries; their conditions need not be identical. Equal entries are not always repeated.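 Grown in 96-well plates, cells were treated for 48 hours with each compound at five concentrations. Insufficient inhibition: endpoint recorded as highest concentration tested. GI50 is the concentration that inhibits growth by half. TGI: concentration producing complete growth inhibition.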

Columns and labels:
Experiment in all cases: NCI anticancer screen, dose series, 48 h
[1] = test system: 786-0 renal
[2] = test system: UACC-257 melanoma
[3] = test system: EKVX NSCLC
[4] = test system: KM12 colon
[5] = test system: MCF7 breast
[6] = test system: HCC-2998 colon
[7] = test system: CAKI-1 renal
[8] = test system: NCI-H522 lung
[9] = test system: LOX IMVI melanoma
[10] = test system: SF-539 CNS

SMILES	TGI [1]	TGI [2]	TGI [3]	TGI [4]	TGI [5]	TGI [6]	TGI [7]	TGI [8]	TGI [9]	TGI [10]	GI50 [4]	GI50 [2]	GI50 [3]	GI50 [5]	GI50 [6]	GI50 [7]	GI50 [8]	GI50 [9]	GI50 [10]
CC1(C)O[C@@H]2COC(=O)[C@@H]2O1	> 100 µM	> 100 µM	> 100 µM	> 100 µM	> 100 µM	> 100 µM	> 100 µM	> 100 µM	> 100 µM	> 100 µM									
C=C(C)CCC(=O)[C@](C)(O)[C@H]1[C@H](O)C[C@@]2(C)[C@@H]3CCc4c(cc(OC5OC(CO)C(O)C(O)C5O)c(O)c4C)C3(C)C(=O)C[C@]12C (stereo not given in full)	> 100 µM	> 100 µM	> 100 µM	> 100 µM	> 100 µM	> 100 µM	> 100 µM	> 100 µM	> 100 µM	> 100 µM									
COC(=O)c1c(C)cccc1/C=C1/Cc2c(C)cccc2C1=O	> 100 µM	> 100 µM	> 100 µM	> 100 µM	> 100 µM	> 100 µM	> 100 µM	> 100 µM	> 100 µM	> 100 µM									
C=C1C(=O)OC2/C=C(\CO)C(OC(C)=O)CC(O)/C(C)=C/C(OC(=O)C(C)CC)C12 (stereo not given)	28.8 µM and 52.9 µM	28.9 µM and 38.5 µM	54.5 µM and 61.5 µM	32.5 µM and > 100 µM	25.8 µM	52.7 µM and 30.4 µM	73.3 µM and 50.5 µM	15.6 µM and 20.3 µM	29.3 µM and 38.3 µM	37.9 µM and 66 µM	17.5 µM and 35.2 µM								
O=[N+]([O-])C(=C(N1CCCCC1)N1CCCCC1)/C(Cl)=C(\Cl)Br	67.8 µM	61.6 µM	37.1 µM	54.5 µM	88.9 µM	32.3 µM	26.6 µM	33.9 µM	44.9 µM	69.2 µM									
O=c1c2ncn(C3CC(O)C(CO)O3)c2nnn1Cc1ccccc1[N+](=O)[O-] (stereo not given)	> 100 µM	> 100 µM	> 100 µM	> 100 µM	> 100 µM	> 100 µM	> 100 µM	> 100 µM	> 100 µM	> 100 µM									
CCSC1=CC(=O)c2nc3ccccc3c3ccnc1c23	11.4 µM	4.19 µM	7.59 µM	25.2 µM	4.79 µM	25 µM	9.12 µM	3.78 µM	> 36.1 µM	13.2 µM									
CSCCC(NCc1c(O)ccc2c(-c3ccccc3)cc(=O)oc12)C(=O)O (stereo not given)	> 100 µM	> 100 µM	> 100 µM	> 100 µM	> 100 µM	> 100 µM	> 100 µM	> 100 µM	> 100 µM	> 100 µM									
CCOC1CC(=O)c2c(Br)sc(Br)c21 (stereo not given)	94.7 µM	32.2 µM	42.7 µM	37.2 µM	40.5 µM	36.9 µM	31 µM	52.7 µM	42.2 µM	69.5 µM									
O=C(O)[C@@H]1C[C@@H](O)CN1C(=O)OCc1ccccc1	> 100 µM	> 100 µM	> 100 µM	> 100 µM	> 100 µM	> 100 µM	> 100 µM	> 100 µM	> 100 µM	> 100 µM									
COC(=O)NN(C(=O)OC)c1c(-c2ccccc2)nc(SC)n1N	> 100 µM	> 100 µM	> 100 µM	> 100 µM	> 100 µM	> 100 µM	> 100 µM	> 100 µM	> 100 µM	> 100 µM									
COc1ccc2c(c1)O/C(=C\c1cccc(OCC(=O)Nc3nc4c(s3)CCCC4)c1)C2=O	> 19.9 µM	> 100 µM	> 100 µM	> 100 µM	> 100 µM	> 100 µM	> 100 µM	13.9 µM	3.32 µM	44.1 µM	10.4 µM	> 100 µM	> 66.3 µM	12.8 µM	> 100 µM	4.66 µM	3.79 µM	1160 nM	16.7 µM
CN(C)c1ccc(-c2c(C#N)c(S)n(NS(=O)(=O)c3ccccc3)c(=O)c2C#N)cc1	40.6 µM	> 100 µM	> 100 µM	47.7 µM	> 100 µM	> 100 µM	76.1 µM	44.5 µM	> 100 µM	53.4 µM									
COc1cc2c(cc1OCCCCOc1cc(-c3ccc(F)cc3)nc(C)n1)N=C[C@@H]1CCCN1C2=O	6.94 µM	1.88 µM	5.18 µM	3.67 µM	15.2 µM	0.689 µM	2.05 µM	2.28 µM	0.663 µM	2.31 µM									
Cc1nn(C(=O)Cc2ccccc2)c2c1C(c1ccccc1O)SC(N)=N2 (stereo not given)	> 100 µM	> 100 µM	> 100 µM	> 100 µM	> 100 µM	> 100 µM	> 100 µM	> 100 µM	> 100 µM	> 100 µM									
Cc1ccccc1OC(C)C(=O)NN1C(=O)CC(=O)N(c2ccc(Cl)cc2)C1=S (stereo not given)	> 100 µM	> 100 µM	> 100 µM	> 100 µM	> 100 µM	71.9 µM	> 100 µM	> 100 µM	> 100 µM	> 100 µM									
CCOC(=O)c1[nH]cc(C)c1-c1ccn(-c2ccccc2)c1	> 100 µM	> 100 µM	> 100 µM	> 100 µM	> 100 µM	> 100 µM	> 100 µM	71.2 µM	> 100 µM	> 100 µM									
